Experiment [1] concerns the target T1, FL-tau (Homo sapiens, UniProt P10636).
T1 construct: full-length tau and an engineered truncation fragment of tau (tau187) were generated by over-expression of the recombinant human protein in bacteria; made in house; host or cells: bacteria
Briefly: Turbidity assay of heparin-induced aggregation, FL-tau. Format: biochemical. As to conditions: FL-tau 50 uM, heparin 0.1 mg/ml, pH 7.0; trimer 200 uM (FIG. 3a). As to the method: (§1) FIG. 3. Proanthocyanidins inhibit tau aggregation. A) Turbidity assay. Aggregation of FL-tau (50 uM) was initiated with heparin (0.1 mg/ml) in 20 mM NaPO4, pH 7.0. Curve 1: no proanthocyanidin; Curve 2: 200 uM purified A-type trimer. B) After 45 min, reactions were centrifuged at 100,000 g×60 min. The amount of tau in the pellets (P) vs. supernatants (S) were examined by SDS-PAGE. Markers (top to bottom) are 97, 66, 45 kDa. C, D) EM after aggregation for 45 min. Scale bars=500 nm; C) no proanthocyanidin, D) 200 uM purified A-type trimer.
(§2) As shown by the data disclosed in the various figures, proanthocyanidins bind to tau and inhibit tau aggregation. […] In these experiments, heparin-induced aggregation of tau into PHF-like fibers is routinely monitored by four methods: 1) enhanced Thioflavin S fluorescence emission; 2) increased turbidity measured by OD350; 3) ultracentrifugation of sarkosyl-treated samples, and 4) electron microscopy. […] To ensure that proanthocyanidin molecules were not simply binding to and precipitating tau in a non-specific manner, the amount of tau that fractionated with the pellet vs. supernatant after high-speed ultracentrifugation was analyzed.

In experiment [2] the target is T2, tau187 (Homo sapiens, UniProt P10636).
T2 construct: his; made in house; host or cells: bacteria
Briefly: Turbidity (OD350) assay of heparin-induced aggregation, tau187. Format: biochemical. To be noted: trimer 12.5 uM as pure trimer or as whole extract (0.22 mg/mL CE); OD 350 (FIG. 17). Here is the method: FIG. 15A. […] 50 μM Tau^187 was incubated with 0.11 mg/ml heparin (18 kDa) at 23° C. Aggregation was monitored by turbidity (OD350). Cinnamaldehyde was present at a final concentration of 0, 50 and 100 μM. FIG. 15B. Electron microscopy of tau fibers in the presence of cinnamaldehyde (CA). Tau fibers were visualized by electron microscopy after 5 hrs of aggregation in the presence of: 0 CA (left panel); B) 100 uM CA (right panel). […] FIG. 15 C. Trans-cinnamaldehyde chemical structure. FIG. 16A. […] 50 uM tau187 was incubated with 0.11 mg/mL heparin (18 kDa) at 23° C. Epicatechin was untreated, treated with 10 mM NH4OH for 10 min at 95° C. then neutralized, or treated with 100 U of mushroom tyrosinase (Sigma) for 10 min. Epicatechin was added to the reaction at a final concentration of 25 uM. Fiber formation was monitored by OD 350. FIG. 16B. epicatechin and catechin chemical structures. FIG. 17A. HPLC analysis of proanthocyanidin A-type trimer, A) purified or B) in whole cinnamon extract. The trimer corresponds to the major peak at ˜40 min. Areas underneath the peaks in panels A and B each correspond to 6150 pmoles. […] Fiber formation was monitored by OD 350. Concentrations of A-trimer in pure form and in whole cinnamon extract (CE) were normalized by absorbance measurements of the A-trimer resolved by HPLC. […]

For a further experiment, the target named is T3, Full-length tau (Homo sapiens, UniProt P10636).
T3 construct: full-length tau and an engineered truncation fragment of tau (tau187) were generated by over-expression of the recombinant human protein in bacteria; made in house; host or cells: bacteria
Description: Ultracentrifugation and SDS-PAGE of pellet vs supernatant, full-length tau. As to conditions: 200 uM trimer; 45 min; 100,000 g x 60 min (FIG. 3b). Format: biochemical. As to the method: as §1
FIG. 4. Cinnamon extract inhibits tau aggregation. […] Samples were then treated with 1% sarkosyl for 1 hr, centrifuged (105,000 g×1 hr), and the pellets (P) versus supernatants (S) then analyzed by SDS-PAGE. […]
as §2

Experiment [3] concerns the target T1, FL-tau. Description: Electron microscopy of FL-tau fibers. The experiment is classed as biochemical. To be noted: FL-tau 50 uM, heparin 0.1 mg/ml; trimer 200 uM (FIG. 3d). As to the method:
as §1, §2

The target of experiment [4] is T2, tau187. Description: UV absorbance spectra, binding to tau. To be noted: trimer 15 uM, 0-17.6 uM tau187, isosbestic point. Here is the method:
FIG. 2. UV absorbance spectra of purified A-type proanthocyanidin trimer as a function of increasing tau concentration. The curves from top to bottom (at A280) are as follows: 0 uM; 4.4 uM; 8.8 uM; 17.6 uM tau^187; proanthocyanidin trimer=15 uM. As is known in the art, the isobestic points are found where the curves overlap.
as §2, with “aggregation. In illustrative experiments, full-length tau and an engineered truncation fragment of tau (tau187) were generated by over-expression of the recombinant human protein in bacteria followed by purification to homogeneity by conventional chromatography. […] The UV spectra display an isosbestic point consistent with a specific binding mechanism.” for “aggregation.”

For experiment [5], the system named is Full-length tau or tau 187. Briefly: Gel electrophoresis of sarkosyl pellets vs supernatants. Format: biochemical, human. As to the method:
In one illustrative embodiment of the invention, gel electrophoresis also can be used to study effects on aggregation. The advantage here is that simple equipment is needed for these measurements but the system provides less definition of the effects of the inhibitors than electron microscopy. Full-length tau or tau 187 (50 uM) is induced to undergo aggregation with heparin (0.1 mg/ml) for 16 hours at room temperature in the presence of varying concentrations of cinnamon extract or cinnamon proanthocyanidin type A trimer. Samples are then treated with 1% sarkosyl for 1 hr, centrifuged (105,000 g×1 hr), and the pellets (P) versus supernatants (S) then analyzed by SDS-PAGE. The increase in the ratio of tau in the pellet compared to the supernatant is a measure of aggregation and cinnamon extract or purified proanthocyanidin is found to decrease this ratio.

The test system of a further experiment is adipocyte cells. As to conditions: 0.1 mg/ml PA trimer; Graves et al. 2001; cited from earlier work.

The values below come from patent US20110263696A1, “PROANTHOCYANIDINS FROM CINNAMON AND ITS WATER SOLUBLE EXTRACT INHIBIT TAU AGGREGATION” (priority 2007, published 2011).

T2 sequence (P10636 572-758 limits assumed): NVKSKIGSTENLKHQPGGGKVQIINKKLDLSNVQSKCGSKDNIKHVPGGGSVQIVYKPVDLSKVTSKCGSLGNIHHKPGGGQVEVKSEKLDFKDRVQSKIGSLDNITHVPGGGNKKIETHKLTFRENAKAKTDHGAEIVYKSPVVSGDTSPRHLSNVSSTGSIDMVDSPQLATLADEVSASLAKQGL
T1 sequence (P10636 1-441 isoform P10636-8): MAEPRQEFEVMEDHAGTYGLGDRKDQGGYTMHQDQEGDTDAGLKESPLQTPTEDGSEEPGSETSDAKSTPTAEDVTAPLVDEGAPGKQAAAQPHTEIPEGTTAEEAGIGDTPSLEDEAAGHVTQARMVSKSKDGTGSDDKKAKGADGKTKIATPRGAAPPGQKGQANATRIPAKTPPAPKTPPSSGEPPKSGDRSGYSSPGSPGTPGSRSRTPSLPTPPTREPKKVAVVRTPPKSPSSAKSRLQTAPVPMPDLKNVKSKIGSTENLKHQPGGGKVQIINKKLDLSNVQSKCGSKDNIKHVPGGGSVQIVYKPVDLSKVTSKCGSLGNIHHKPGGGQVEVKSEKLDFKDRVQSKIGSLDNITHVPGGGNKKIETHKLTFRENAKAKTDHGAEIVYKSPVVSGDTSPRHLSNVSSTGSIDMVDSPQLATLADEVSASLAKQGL
T3 sequence (P10636 1-441 isoform P10636-8): as above
Full-length tau or tau 187, sequence (P10636 572-758 limits assumed): as the sequence (P10636 572-758 limits assumed) above

As for “A-linked proanthocyanidin trimer [A-type trimer]”, at FL-tau [1], the “Inhibition of FL-tau aggregation (turbidity)” value is “dramatically inhibited”. At tau187 [2], the “Inhibition of tau187 aggregation, whole extract vs pure trimer at equal trimer content” value is reported as “inhibits tau polypeptide aggregation”. In addition, the “Tau in pellet vs supernatant after ultracentrifugation” value at Full-length tau is “remain in the soluble fraction”. For the same substance, the “FL-tau fibers by EM after aggregation for 45 min” value on FL-tau [3] is “short fibers that were very much less abundant”. Moreover, the “Binding to tau by change in UV absorbance spectrum” value at tau187 [4] is on record as “displays affinity for monomeric tau”; at tau187 [4] (listed as proanthocyanidin A), “binds directly to tau”. Moreover, in experiment [5], the “Tau aggregation by gel electrophoresis” value is “less aggregation of tau”. Moreover, the Glucose uptake result with adipocyte cells is “increase in glucose uptake”.
